Measured values from patent publication US20210255193A1, “LYSINE REACTIVE PROBES AND USES THEREOF” (The Scripps Research Institute, priority 2017, published 2021).

Legend:
Test in all cases: competitive isoTOP-ABPP
Type in all cases: binding
DCTN2 Dynactin subunit 2 = molecular target: T1, DCTN2 Dynactin subunit 2 (Homo sapiens, UniProt Q13561); conditions: for isoTOP-ABPP reactivity ratio at lysine Q13561_K175 / isoTOP-ABPP ratio (R) at liganded lysine Q13561_K175: 50 uM, in vitro; for isoTOP-ABPP reactivity ratio at lysine Q13561_K175: 231 sol; for isoTOP-ABPP ratio (R) at liganded lysine Q13561_K175: sol, 231; for isoTOP-ABPP ratio, lysine Q13561_K175: 50 uM_231_sol_in vitro
T1 construct: isoTOP-ABPP experiments performed in cell lysates (in vitro); endogenous in cells; host or cells: soluble proteome of human cancer cell lines (MDA-MB-231, Ramos, Jurkat)
T1 sequence (Q13561 whole entry): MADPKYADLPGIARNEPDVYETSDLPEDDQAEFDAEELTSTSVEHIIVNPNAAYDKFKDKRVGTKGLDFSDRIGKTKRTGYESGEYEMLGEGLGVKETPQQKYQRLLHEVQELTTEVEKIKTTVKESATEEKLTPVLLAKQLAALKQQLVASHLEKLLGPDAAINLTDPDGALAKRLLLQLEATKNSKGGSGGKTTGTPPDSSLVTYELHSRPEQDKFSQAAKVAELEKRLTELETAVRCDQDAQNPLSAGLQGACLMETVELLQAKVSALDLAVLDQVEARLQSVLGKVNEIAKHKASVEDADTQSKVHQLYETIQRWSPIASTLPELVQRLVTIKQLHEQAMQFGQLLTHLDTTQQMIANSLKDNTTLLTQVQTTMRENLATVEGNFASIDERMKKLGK
Method in brief: (§1)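 Here, isoTOP-ABPP measures loss of STP-alkyne labeling at individual lysines after fragment exposure in lysate. Activated esters are dosed at 50 μM, guanidinylating agents at 100 μM; the probe follows at 0.1 mM for 1 h. R ≥4 marks a liganded lysine.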

[1] = molecular target: T2, PFKL 6-phosphofructokinase, liver type (Homo sapiens, UniProt P17858); conditions: for isoTOP-ABPP reactivity ratio at lysine P17858_K677 / isoTOP-ABPP reactivity ratio at lysine P17858_K715 / isoTOP-ABPP reactivity ratio at lysine P17858_K315 / isoTOP-ABPP ratio (R) at liganded lysine P17858_K677 / isoTOP-ABPP ratio (R) at liganded lysine P17858_K715 / isoTOP-ABPP ratio (R) at liganded lysine P17858_K315: 50 uM, in vitro; for isoTOP-ABPP reactivity ratio at lysine P17858_K677 / isoTOP-ABPP reactivity ratio at lysine P17858_K715 / isoTOP-ABPP reactivity ratio at lysine P17858_K315: 231 sol; for isoTOP-ABPP ratio (R) at liganded lysine P17858_K677 / isoTOP-ABPP ratio (R) at liganded lysine P17858_K715 / isoTOP-ABPP ratio (R) at liganded lysine P17858_K315: sol, 231; for isoTOP-ABPP ratio, lysine P17858_K315 / isoTOP-ABPP ratio, lysine P17858_K677 / isoTOP-ABPP ratio, lysine P17858_K715: 50 uM_231_sol_in vitro; for isoTOP-ABPP ratio, lysine P17858_K677: possible other lysine P17858_K681; for isoTOP-ABPP ratio, lysine P17858_K715: possible other lysine P17858_K714
T2 construct: isoTOP-ABPP experiments performed in cell lysates (in vitro); endogenous in cells; host or cells: soluble proteome of human cancer cell lines (MDA-MB-231; Ramos and Jurkat also prepared)
T2 sequence (P17858 1-780): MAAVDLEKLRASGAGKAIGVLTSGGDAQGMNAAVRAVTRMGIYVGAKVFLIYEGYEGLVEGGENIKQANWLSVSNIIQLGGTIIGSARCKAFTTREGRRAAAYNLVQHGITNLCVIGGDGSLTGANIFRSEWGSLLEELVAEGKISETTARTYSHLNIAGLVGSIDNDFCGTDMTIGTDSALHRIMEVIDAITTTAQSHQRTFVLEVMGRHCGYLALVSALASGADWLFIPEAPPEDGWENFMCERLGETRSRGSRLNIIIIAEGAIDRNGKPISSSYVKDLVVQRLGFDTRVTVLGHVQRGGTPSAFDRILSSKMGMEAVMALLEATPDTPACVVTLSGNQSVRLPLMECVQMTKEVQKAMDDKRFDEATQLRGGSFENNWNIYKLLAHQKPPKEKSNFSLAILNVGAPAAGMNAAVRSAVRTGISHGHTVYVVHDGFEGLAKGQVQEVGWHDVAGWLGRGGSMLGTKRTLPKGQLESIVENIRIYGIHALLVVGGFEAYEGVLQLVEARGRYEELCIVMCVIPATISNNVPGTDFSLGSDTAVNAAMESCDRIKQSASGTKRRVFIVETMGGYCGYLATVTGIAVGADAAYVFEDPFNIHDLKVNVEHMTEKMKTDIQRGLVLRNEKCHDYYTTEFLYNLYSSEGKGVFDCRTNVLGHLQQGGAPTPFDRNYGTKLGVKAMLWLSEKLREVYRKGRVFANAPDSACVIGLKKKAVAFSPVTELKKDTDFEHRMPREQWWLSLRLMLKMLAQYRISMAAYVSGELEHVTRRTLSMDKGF
Method in brief: as §1

[2] = molecular target: T3, MAP2K3 Dual specificity mitogen-activated protein kinase (Homo sapiens, UniProt P46734); conditions: for isoTOP-ABPP reactivity ratio at lysine P46734_K93 / isoTOP-ABPP ratio (R) at liganded lysine P46734_K93: 50 uM, in vitro; for isoTOP-ABPP reactivity ratio at lysine P46734_K93: 231 sol; for isoTOP-ABPP ratio (R) at liganded lysine P46734_K93: sol, 231; for isoTOP-ABPP ratio, lysine P46734_K93: 50 uM_231_sol_in vitro
T3 construct: isoTOP-ABPP experiments performed in cell lysates (in vitro); endogenous in cells; host or cells: soluble proteome of human cancer cell lines (MDA-MB-231; Ramos and Jurkat also prepared)
T3 sequence (P46734 1-347): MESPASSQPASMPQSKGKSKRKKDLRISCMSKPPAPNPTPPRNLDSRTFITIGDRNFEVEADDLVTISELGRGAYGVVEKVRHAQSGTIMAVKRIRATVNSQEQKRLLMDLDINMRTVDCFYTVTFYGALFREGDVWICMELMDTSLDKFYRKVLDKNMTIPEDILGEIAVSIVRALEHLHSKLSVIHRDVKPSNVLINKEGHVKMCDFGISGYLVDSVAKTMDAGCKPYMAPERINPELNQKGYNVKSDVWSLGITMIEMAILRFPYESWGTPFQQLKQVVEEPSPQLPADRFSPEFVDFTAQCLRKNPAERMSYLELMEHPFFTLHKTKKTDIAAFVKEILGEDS
Method in brief: as §1

[3] = molecular target: T4, KIAA1967 DBIRD complex subunit KIAA1967 (Homo sapiens, UniProt Q8N163); conditions: for isoTOP-ABPP reactivity ratio at lysine Q8N163_K97 / isoTOP-ABPP reactivity ratio at lysine Q8N163_K112 / isoTOP-ABPP ratio (R) at liganded lysine Q8N163_K97 / isoTOP-ABPP ratio (R) at liganded lysine Q8N163_K112: 50 uM, in vitro; for isoTOP-ABPP reactivity ratio at lysine Q8N163_K97 / isoTOP-ABPP reactivity ratio at lysine Q8N163_K112: 231 sol; for isoTOP-ABPP ratio (R) at liganded lysine Q8N163_K97 / isoTOP-ABPP ratio (R) at liganded lysine Q8N163_K112: sol, 231; for isoTOP-ABPP ratio, lysine Q8N163_K97 / isoTOP-ABPP ratio, lysine Q8N163_K112: 50 uM_231_sol_in vitro
T4 construct: isoTOP-ABPP experiments performed in cell lysates (in vitro); endogenous in cells; host or cells: soluble proteome of human cancer cell lines (MDA-MB-231; Ramos and Jurkat also prepared)
T4 sequence (Q8N163 whole entry, one chain of several): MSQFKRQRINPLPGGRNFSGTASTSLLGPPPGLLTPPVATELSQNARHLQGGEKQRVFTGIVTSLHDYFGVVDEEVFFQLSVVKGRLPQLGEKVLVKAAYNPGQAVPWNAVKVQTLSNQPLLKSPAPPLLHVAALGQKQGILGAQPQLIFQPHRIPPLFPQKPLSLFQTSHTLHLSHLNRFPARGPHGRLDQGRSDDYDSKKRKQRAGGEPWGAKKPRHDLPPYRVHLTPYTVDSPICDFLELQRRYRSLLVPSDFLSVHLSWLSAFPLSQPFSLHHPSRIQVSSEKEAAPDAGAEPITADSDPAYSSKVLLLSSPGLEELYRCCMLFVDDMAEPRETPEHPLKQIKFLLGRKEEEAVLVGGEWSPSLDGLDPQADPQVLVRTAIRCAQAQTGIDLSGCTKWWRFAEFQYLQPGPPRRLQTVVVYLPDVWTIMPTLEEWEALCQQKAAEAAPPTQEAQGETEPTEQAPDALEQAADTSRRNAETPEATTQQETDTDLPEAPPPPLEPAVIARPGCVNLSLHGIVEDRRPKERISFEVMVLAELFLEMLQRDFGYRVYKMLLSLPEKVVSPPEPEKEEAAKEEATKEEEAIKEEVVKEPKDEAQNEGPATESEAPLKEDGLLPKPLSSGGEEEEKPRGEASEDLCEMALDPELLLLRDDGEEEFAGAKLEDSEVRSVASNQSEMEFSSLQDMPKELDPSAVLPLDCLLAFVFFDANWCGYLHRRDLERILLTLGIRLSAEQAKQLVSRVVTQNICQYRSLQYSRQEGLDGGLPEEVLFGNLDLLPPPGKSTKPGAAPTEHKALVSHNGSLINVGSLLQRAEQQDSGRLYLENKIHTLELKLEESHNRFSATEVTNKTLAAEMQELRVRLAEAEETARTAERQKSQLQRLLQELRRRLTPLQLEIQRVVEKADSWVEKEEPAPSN
Method in brief: as §1

SMILES | isoTOP-ABPP ratio (R) at liganded lysine Q13561_K175 (DCTN2 Dynactin subunit 2) | isoTOP-ABPP ratio (R) at liganded lysine P17858_K677 [1] | isoTOP-ABPP ratio (R) at liganded lysine P17858_K715 [1] | isoTOP-ABPP ratio (R) at liganded lysine P46734_K93 [2] | isoTOP-ABPP ratio (R) at liganded lysine Q8N163_K97 [3] | isoTOP-ABPP ratio (R) at liganded lysine Q8N163_K112 [3] | further results
O=C(Oc1ccc([N+](=O)[O-])cc1[N+](=O)[O-])c1cc(C(F)(F)F)cc(C(F)(F)F)c1 [fragment 31, 2,4-Dinitrophenyl 3,5-bis(trifluoromethyl)benzoate] |  |  |  |  |  |  | isoTOP-ABPP reactivity ratio at lysine Q13561_K175 (DCTN2 Dynactin subunit 2): 1.0; isoTOP-ABPP reactivity ratio at lysine P17858_K677 [1]: 2.5; isoTOP-ABPP reactivity ratio at lysine P17858_K715 [1]: 2.3; isoTOP-ABPP reactivity ratio at lysine P46734_K93 [2]: 1.2; isoTOP-ABPP reactivity ratio at lysine Q8N163_K97 [3]: 0.9; isoTOP-ABPP reactivity ratio at lysine Q8N163_K112 [3]: 1.0
Cn1cc(CC(=O)Oc2ccc([N+](=O)[O-])cc2[N+](=O)[O-])c2ccccc21 [fragment 32, 2,4-Dinitrophenyl 2-(1-methyl-1H-indol-3-yl)acetate] |  |  |  |  |  |  | isoTOP-ABPP reactivity ratio at lysine Q13561_K175 (DCTN2 Dynactin subunit 2): 4.4; isoTOP-ABPP reactivity ratio at lysine P17858_K315 [1]: 20.0; isoTOP-ABPP reactivity ratio at lysine P17858_K677 [1]: 11.9; isoTOP-ABPP reactivity ratio at lysine P17858_K715 [1]: 7.7; isoTOP-ABPP reactivity ratio at lysine P46734_K93 [2]: 1.4; isoTOP-ABPP reactivity ratio at lysine Q8N163_K97 [3]: 1.1; isoTOP-ABPP reactivity ratio at lysine Q8N163_K112 [3]: 1.2
COc1cc(CCC(=O)Oc2ccc([N+](=O)[O-])cc2[N+](=O)[O-])cc(OC)c1OC [fragment 33, 2,4-Dinitrophenyl 3-(3,4,5-trimethoxyphenyl)propanoate] |  |  |  |  |  |  | isoTOP-ABPP reactivity ratio at lysine Q13561_K175 (DCTN2 Dynactin subunit 2): 1.6; isoTOP-ABPP reactivity ratio at lysine P17858_K315 [1]: 0.8; isoTOP-ABPP reactivity ratio at lysine P17858_K677 [1]: 2.0; isoTOP-ABPP reactivity ratio at lysine P17858_K715 [1]: 1.1; isoTOP-ABPP reactivity ratio at lysine P46734_K93 [2]: 0.9; isoTOP-ABPP reactivity ratio at lysine Q8N163_K97 [3]: 0.7; isoTOP-ABPP reactivity ratio at lysine Q8N163_K112 [3]: 0.9
O=C(Oc1ccc([N+](=O)[O-])cc1[N+](=O)[O-])C1CCN(C(=O)OCc2ccccc2)CC1 [fragment 34, 1-Benzyl 4-(2,4-dinitrophenyl) piperidine-1,4-dicarboxylate] | 1.7 | 2.8 | 1.3 | 0.8 | 1.3 | 1.0 | 
O=C(Oc1ccc([N+](=O)[O-])cc1[N+](=O)[O-])c1ccc2ccccc2n1 [fragment 35, 2,4-Dinitrophenyl quinoline-2-carboxylate] | 0.8 | 1.5 | 1.3 | 1.0 | 0.8 |  | 
O=C(Oc1ccc([N+](=O)[O-])cc1[N+](=O)[O-])c1ccc(-c2ccccc2)cc1 [fragment 37, 2,4-Dinitrophenyl [1,1′-biphenyl]-4-carboxylate] | 0.9 | 1.1 | 1.1 | 0.7 | 1.0 | 1.1 | isoTOP-ABPP ratio (R) at liganded lysine P17858_K315 [1]: 1.3
O=C(Oc1ccc([N+](=O)[O-])cc1[N+](=O)[O-])c1ccc(Oc2ccccc2)cc1 [fragment 39, 2,4-Dinitrophenyl 4-phenoxybenzoate] | 0.8 | 1.3 | 0.6 | 0.8 | 0.9 | 1.1 | 
O=C(Oc1ccc([N+](=O)[O-])cc1[N+](=O)[O-])c1ccccc1Nc1cccc(C(F)(F)F)c1 [fragment 40, 2,4-Dinitrophenyl 2-((3-(trifluoromethyl)phenyl)amino)benzoate] | 0.9 | 0.9 | 1.1 | 1.0 | 1.0 | 1.5 | 
CC(C)(C)OC(=O)NCCCC(=O)Oc1ccc([N+](=O)[O-])cc1[N+](=O)[O-] [fragment 41, 2,4-Dinitrophenyl 4-((tert-butoxycarbonyl)amino)butanoate] | 1.3 | 5.6 | 2.0 | 0.9 | 1.0 | 1.3 | isoTOP-ABPP ratio (R) at liganded lysine P17858_K315 [1]: 2.3
O=C(Oc1ccc([N+](=O)[O-])cc1[N+](=O)[O-])C(c1ccccc1)(c1ccccc1)c1ccccc1 [fragment 42, 2,4-Dinitrophenyl 2,2,2-triphenylacetate] | 0.9 | 0.8 | 0.9 | 0.9 | 1.0 | 1.1 | isoTOP-ABPP ratio (R) at liganded lysine P17858_K315 [1]: 0.7
CC(=O)Oc1ccc([N+](=O)[O-])cc1[N+](=O)[O-] [fragment 43, 2,4-Dinitrophenyl acetate] | 0.6 | 3.2 | 1.3 | 1.0 | 0.9 | 1.0 | 
N#Cc1ccc(C(=O)Oc2ccc([N+](=O)[O-])cc2[N+](=O)[O-])cc1 [fragment 44, 2,4-Dinitrophenyl 4-cyanobenzoate] |  |  |  |  |  |  | isoTOP-ABPP ratio, lysine Q13561_K175 (DCTN2 Dynactin subunit 2): 0.8; isoTOP-ABPP ratio, lysine P17858_K315 [1]: 0.8; isoTOP-ABPP ratio, lysine P17858_K677 [1]: 1.7; isoTOP-ABPP ratio, lysine P17858_K715 [1]: 1.8; isoTOP-ABPP ratio, lysine P46734_K93 [2]: 0.8; isoTOP-ABPP ratio, lysine Q8N163_K97 [3]: 0.8; isoTOP-ABPP ratio, lysine Q8N163_K112 [3]: 1.0
O=C(CCc1ccc2c(c1)OCO2)Oc1ccc([N+](=O)[O-])cc1[N+](=O)[O-] [fragment 45, 2,4-Dinitrophenyl 3-(benzo[d][1,3]dioxol-5-yl)propanoate] |  |  |  |  |  |  | isoTOP-ABPP ratio, lysine Q13561_K175 (DCTN2 Dynactin subunit 2): 1.6; isoTOP-ABPP ratio, lysine P17858_K315 [1]: 1.8; isoTOP-ABPP ratio, lysine P17858_K677 [1]: 2.9; isoTOP-ABPP ratio, lysine P17858_K715 [1]: 10.9; isoTOP-ABPP ratio, lysine P46734_K93 [2]: 0.9; isoTOP-ABPP ratio, lysine Q8N163_K97 [3]: 0.8; isoTOP-ABPP ratio, lysine Q8N163_K112 [3]: 1.2
